Data as given in patent publication US20210381051A1, “DNA METHYLATION BIOMARKER OF AGING FOR HUMAN EX VIVO AND IN VIVO STUDIES” (The Regents of the University of California, priority 2018, published 2021).

Assays:
[1] = system: neonatal dermal fibroblasts; assay: Ex vivo epigenetic aging of fibroblasts by the skin & blood clock; assay type: cell-based, human; settings: suggestive evidence
From the text: (§1) FIG. 6. Ex vivo study of compounds that may accelerate or decelerate epigenetic aging. A) Effect of Y-27632 and rapamycin treatment on neonatal keratinocytes measured by the skin & blood clock. B) Effect of oestrogen on neonatal dermal fibroblasts.
(§2) By its ability to quantitatively track aging of human cells ex vivo, the skin & blood clock lends itself to be used in the development of an ex vivo human cell aging assay that can be used for testing and screening compounds with anti-aging or pro-aging effects.

[2] = system: progerin accumulation in HGPS cells; settings: in vitro studies [41, 42]; cited from earlier work
[3] = system: primary human keratinocytes from neonatal foreskins; assay: Ex vivo human cell aging assay: DNAm age of cultured keratinocytes by the skin & blood clock; assay type: cell-based
From the text: as §1, §2
(§3) Primary keratinocytes were isolated from human neonatal foreskins from three donors (Donor A, B and C) and were put in culture with standard media or media supplemented with rapamycin, Y-27632 or a cocktail of both of these compounds (methods). The cells were passaged continually and population doublings at each passage recorded. In time all cells, regardless of donor or treatment underwent replicative senescence, where they ceased to increase their numbers after at least 2 weeks in culture with regular replenishment of media. […] DNA methylation profiles from a selection of passages of these cells were obtained and analysed with the skin & blood clock. […]
(§4) Primary human neonatal fibroblasts were isolated from circumcised foreskins. […] Upon confluence, cells were trypsinised, counted and 100,000 were seeded into fresh fibronectin/collagen-coated plates. […]

[4] = system: primary human keratinocytes; assay: Keratinocyte proliferation rate and proliferative capacity (population doublings); assay type: cell-based; settings: rapamycin 25 nM, Y-27632 1 μM
From the text: The availability of an epigenetic clock, such as the skin & blood clock, which is applicable to cultured cells, allows epigenetic ageing to be studied beyond the purely descriptive nature afforded by epidemiological analyses alone. Towards this end, we have established in vitro epigenetic ageing systems using primary human cells. One of this is based on primary keratinocytes that are derived from healthy human skins. […] The opposing effects of these compounds on keratinocyte proliferation present us with the opportunity to test whether cellular proliferation rate impacts epigenetic ageing while carrying out our primary aim of interrogating the effects of rapamycin on epigenetic ageing.
as §3, with “recorded.” for “recorded. In time all cells, regardless of donor or treatment underwent replicative senescence, where they ceased to increase their numbers after at least 2 weeks in culture with regular replenishment of media.”
as §4

HGPS patients = settings: after 2.2 years of follow-up, 27% death in the matched untreated group; cited from earlier work

In the case of estrogen, the “epigenetic aging (skin & blood clock), FIG. 6B” value [1] is reported as “associated with slower epigenetic aging”.

For CN(C)C(=N)N=C(N)N [metformin], the “progerin accumulation and cellular HGPS phenotypes” value [2] is listed as “reduction of progerin accumulation”.

With C[C@@H](N)[C@H]1CC[C@H](C(=O)Nc2ccncc2)CC1 [Y-27632] the “epigenetic aging (skin & blood clock), FIG. 6A” value ([3]; Example 1, dividing / neonatal keratinocytes, suggestive evidence) was “appears to increase epigenetic aging”, the “epigenetic ageing (skin & blood clock)” value ([3]; Example 2, neonatal foreskin keratinocytes of three donors, CnT-07 medium, rapamycin 25 nM, Y-27632 1 μM, present for the entire duration) was “did not impose any appreciable effect” and the “cellular proliferation rate (population doublings per unit of time)” value [4] was “increases it”.

In the case of NC(=O)N1CCC(CC(=O)N2CCC([C@H]3c4ncc(Br)cc4CCc4cc(Cl)cc(Br)c43)CC2)CC1 [lonafarnib], the “death in the treated group” value (HGPS patients) is listed as 6.3%.
